# Test results taken from US20260022142A1, “MACROCYCLIC IMMUNOMODULATORS” (Bristol-Myers Squibb Company, priority 2022, published 2026).
# Numbered stars: 1 amine (or outer) side, 2 acyl side, 3 side chain; on linkers, the order of the positions; unused ones are H or OH. Bridge positions count the residues as written; N and C are the ends. Square brackets hold non-standard residues; d marks the D form. Peptide text beside a SMILES is read from it. * marks the point of attachment. ξ: configuration not given here. X2 = CC(C)C[C@H](N[*:1])C(=O)C[C@H](C(=O)[*:2])C(C)C; Phe(4-CONH2) = NC(=O)c1ccc(C[C@H](N)C(=O)O)cc1; Bip = N[C@@H](Cc1ccc(-c2ccccc2)cc1)C(=O)O; Tyr(3-F) = N[C@@H](Cc1ccc(O)c(F)c1)C(=O)O; Phe(3-Me) = Cc1cccc(C[C@H](N)C(=O)O)c1; γGlu = O=C(O)[C@H](CCC(=O)[*:2])N[*:1]; His(τ-Me) = Cn1cnc(C[C@H](N)C(=O)O)c1; His(π-Me) = Cn1cncc1C[C@H](N)C(=O)O; Val(3-OH) = CC(C)(O)[C@H](N)C(=O)O; hArg = N=C(N)NCCCC[C@H](N)C(=O)O; 4Pal = N[C@@H](Cc1ccncc1)C(=O)O; Cha = N[C@@H](CC1CCCCC1)C(=O)O; Cit = NC(=O)NCCC[C@H](N)C(=O)O; Thr(3ξ) = CC(O)[C@H](N)C(=O)O; 12Ado = NCCCCCCCCCCCC(=O)O; dDab = NCC[C@@H](N)C(=O)O; Carboxymethyl = O=C(O)C*; Orn = NCCC[C@H](N)C(=O)O; Pra = C#CC[C@H](N)C(=O)O; Aun = NCCCCCCCCCCC(=O)O; Dab = NCC[C@H](N)C(=O)O; Dap = NC[C@H](N)C(=O)O; AEEA = NCCOCCOCC(=O)O
# Target: T1, PD-1/PD-L1 interaction (PE-labeled human PD-L1-Ig binding to Jurkat cell line over-expressing human PD-1) (Homo sapiens, UniProt Q15116)
# T1 construct: expressed in transfected cells; host or cells: Jurkat
# Experiment: Jurkat-PD-1 Cell Binding High-Content Screening Assay (CBA)
# Assay type: cell-based
# Conditions: Jurkat cell line over-expressing human PD-1; PE-labeled PD-L1-Ig 20 nM final; read-out: Jurkat hPD1-PDL1 IC50
# Method in brief: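 Binding of fluorescent PD-L1-Ig (20 nM final) to Jurkat-PD-1 cells was measured by automated imaging after 1 h, following a 2 h compound pre-treatment at 37° C.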
# T1 sequence (Q15116 25-288): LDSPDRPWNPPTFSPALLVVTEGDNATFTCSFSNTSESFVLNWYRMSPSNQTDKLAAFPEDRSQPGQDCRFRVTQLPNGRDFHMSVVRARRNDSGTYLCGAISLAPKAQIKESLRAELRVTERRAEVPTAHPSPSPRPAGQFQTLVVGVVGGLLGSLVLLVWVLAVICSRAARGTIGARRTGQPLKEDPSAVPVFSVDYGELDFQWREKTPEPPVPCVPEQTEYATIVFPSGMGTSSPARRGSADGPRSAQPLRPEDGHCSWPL
row,Compound,IC50 [nM]
1,Cc1cccc(C[C@@H]2NC(=O)[C@H](CC(=O)O)NC(=O)[C@H](Cc3ccncc3)NC(=O)[C@H](Cc3ccc(OCC(=O)O)cc3)NC(=O)CSC[C@@H](C(=O)N[C@@H](Cc3cnc[nH]3)C(=O)NCCCCCCCCCCC(=O)O)NC(=O)[C@H]([C@@H](C)O)NC(=O)[C@H](C(C)C)NC(=O)[C@H](CC3CCCCC3)NC(=O)[C@H](CCN)NC(=O)[C@@H](CC(C)C)NC(=O)[C@H](CCCN)NC(=O)[C@H](C(C)C)NC(=O)[C@H](Cc3ccc(-c4ccccc4)cc3)NC(=O)[C@H](C(C)C)NC2=O)c1 [Compound 1168] ({CH2CO}-Y(Carboxymethyl)[4Pal]D[Phe(3-Me)]V[Bip]V[Orn][dL][Dab][Cha]VTCH[Aun]-OH; thioether N-14),147
2,Cc1cccc(C[C@@H]2NC(=O)[C@H](CC(=O)O)NC(=O)[C@H](Cc3ccc(OCC(=O)O)cc3)NC(=O)[C@H](CN)NC(=O)CSC[C@@H](C(=O)N[C@@H](CCN)C(=O)NCCOCCOCC(=O)NCCCCCCCCCCC(=O)O)NC(=O)[C@H](CCCNC(=N)N)NC(=O)[C@H](Cc3ccc(O)cc3)NC(=O)[C@H](CC3CCCCC3)NC(=O)[C@H](CCN)NC(=O)[C@@H](CC(C)C)NC(=O)[C@H](CCCN)NC(=O)[C@H](Cc3ccc(O)cc3)NC(=O)[C@H](Cc3ccc(-c4ccccc4)cc3)NC(=O)[C@H](Cc3ccc(O)cc3)NC2=O)c1 [Compound 2506] ({CH2CO}-[Dap]Y(Carboxymethyl)D[Phe(3-Me)]Y[Bip]Y[Orn][dL][Dab][Cha]YRC[Dab][AEEA][Aun]-OH; thioether N-14),32.4
3,CC(C)C[C@H]1NC(=O)[C@H](CCCN)NC(=O)[C@H](Cc2ccc(O)cc2)NC(=O)[C@H](Cc2ccc(-c3ccccc3)cc2)NC(=O)[C@H](Cc2ccc(O)cc2)NC(=O)[C@H](Cc2ccc(O)c(F)c2)NC(=O)[C@H](CC(=O)O)NC(=O)[C@H](Cc2ccc(OCC(=O)O)cc2)NC(=O)[C@H](CCCNC(=N)N)NC(=O)CSC[C@@H](C(=O)N[C@@H](CCN)C(=O)NCCCCCCCCCCC(=O)O)NC(=O)[C@H]([C@@H](C)O)NC(=O)[C@H](C(C)C)NC(=O)[C@H](CC2CCCCC2)NC(=O)[C@H](CCN)NC1=O [Compound 2103] ({CH2CO}-RY(Carboxymethyl)D[Tyr(3-F)]Y[Bip]Y[Orn][dL][Dab][Cha]VTC[Dab][Aun]-OH; thioether N-14),69.9
4,Cc1cccc(C[C@@H]2NC(=O)[C@H](CC(=O)O)NC(=O)[C@H](Cc3ccc(OCC(=O)O)cc3)NC(=O)[C@H](Cc3cncn3C)NC(=O)CSC[C@@H](C(=O)N[C@@H](CCN)C(=O)NCCCCCCCCCCC(=O)O)NC(=O)[C@H]([C@@H](C)O)NC(=O)[C@H](C(C)C)NC(=O)[C@H](CC3CCCCC3)NC(=O)[C@H](CCN)NC(=O)[C@@H](CC(C)C)NC(=O)[C@H](CCCN)NC(=O)[C@H](Cc3ccc(OCC(=O)O)cc3)NC(=O)[C@H](Cc3ccc(-c4ccccc4)cc3)NC(=O)[C@H](Cc3ccc(OCC(=O)O)cc3)NC2=O)c1 [Compound 2148] ({CH2CO}-[His(π-Me)]Y(Carboxymethyl)D[Phe(3-Me)]Y(Carboxymethyl)[Bip]Y(Carboxymethyl)[Orn][dL][Dab][Cha]VTC[Dab][Aun]-OH; thioether N-14),25.4
5,Cc1cccc(C[C@@H]2NC(=O)[C@H](CC(=O)O)NC(=O)[C@H](Cc3ccc(OCC(=O)O)cc3)NC(=O)[C@H](CCN)NC(=O)CSC[C@@H](C(=O)N[C@@H](CCN)C(=O)N[C@@H](CO)C(=O)NCCCCCCCCCCCC(=O)O)NC(=O)[C@H](CCCN)NC(=O)[C@H](C(C)O)NC(=O)[C@H](CC3CCCCC3)NC(=O)[C@H](CCN)NC(=O)[C@@H](CC(C)C)NC(=O)[C@H](CCCN)NC(=O)[C@H](Cc3ccc(OCC(=O)O)cc3)NC(=O)[C@H](Cc3ccc(-c4ccccc4)cc3)NC(=O)[C@H](Cc3ccc(OCC(=O)O)cc3)NC2=O)c1 (stereo partly drawn) [Compound 3636] ({CH2CO}-[Dab]Y(Carboxymethyl)D[Phe(3-Me)]Y(Carboxymethyl)[Bip]Y(Carboxymethyl)[Orn][dL][Dab][Cha][Thr(3ξ)][Orn]C[Dab]S[12Ado]-OH; thioether N-14),20.9
6,Cc1cccc(C[C@@H]2NC(=O)[C@H](CC(=O)O)NC(=O)[C@H](Cc3ccc(OCC(=O)O)cc3)NC(=O)[C@H](Cc3cn(C)cn3)NC(=O)CSC[C@@H](C(=O)N[C@@H](CCN)C(=O)NCCCCCCCCCCC(=O)O)NC(=O)[C@H](CO)NC(=O)[C@H](C(C)C)NC(=O)[C@H](CC3CCCCC3)NC(=O)[C@H](CCN)NC(=O)[C@@H](CC(C)C)NC(=O)[C@H](CCCN)NC(=O)[C@H](Cc3ccc(OCC(=O)O)cc3)NC(=O)[C@H](Cc3ccc(-c4ccccc4)cc3)NC(=O)[C@H](C(C)(C)O)NC2=O)c1 [Compound 2150] ({CH2CO}-[His(τ-Me)]Y(Carboxymethyl)D[Phe(3-Me)][Val(3-OH)][Bip]Y(Carboxymethyl)[Orn][dL][Dab][Cha]VSC[Dab][Aun]-OH; thioether N-14),565
7,C#CC[C@H](NC(=O)COCCOCCNC(=O)[C@H](CCCCN)NC(=O)[C@@H]1CSCC(=O)N[C@@H](Cc2ccncc2)C(=O)N[C@@H](Cc2ccc(OCC(=O)O)cc2)C(=O)N[C@@H](CC(=O)O)C(=O)N[C@@H](Cc2c[nH]c3ccccc23)C(=O)N[C@@H](C(C)C)C(=O)N[C@@H](Cc2ccc(-c3ccccc3)cc2)C(=O)N[C@@H]([C@@H](C)CC)C(=O)N[C@@H](CCCN)C(=O)N[C@H](CC(C)C)C(=O)N[C@@H](CCN)C(=O)N[C@@H](CC(C)C)C(=O)N[C@@H](C(C)C)C(=O)N[C@@H]([C@@H](C)O)C(=O)N1)C(=O)NCCCCCCCCCCC(=O)O [Compound 1208] ({CH2CO}-[4Pal]Y(Carboxymethyl)DWV[Bip]I[Orn][dL][Dab]LVTCK[AEEA][Pra][Aun]-OH; thioether N-14),26.9
8,Cc1cccc(C[C@@H]2NC(=O)[C@H](CC(=O)O)NC(=O)[C@H](Cc3ccc(OCC(=O)O)cc3)NC(=O)[C@H](Cc3ccncc3)NC(=O)CSC[C@@H](C(=O)N[C@@H](CCN)C(=O)NCCCCCCCCCCC(=O)O)NC(=O)[C@H](C(C)O)NC(=O)[C@H](C(C)(C)O)NC(=O)[C@H](CC3CCCCC3)NC(=O)[C@H](Cc3cnc[nH]3)NC(=O)[C@@H](CC(C)C)NC(=O)[C@H](CCCN)NC(=O)[C@H](Cc3ccc(O)cc3)NC(=O)[C@H](Cc3ccc(-c4ccccc4)cc3)NC(=O)[C@H](Cc3ccc(C(N)=O)cc3)NC2=O)c1 (stereo partly drawn) [Compound 3728] ({CH2CO}-[4Pal]Y(Carboxymethyl)D[Phe(3-Me)][Phe(4-CONH2)][Bip]Y[Orn][dL]H[Cha][Val(3-OH)][Thr(3ξ)]C[Dab][Aun]-OH; thioether N-14),25.6

# These reach a lower IC50. Values come first.
row,IC50 [nM],Compound
1,17.2,CC(C)C[C@@H]1NC(=O)[C@H](CCN)NC(=O)[C@@H](CC(C)C)NC(=O)[C@H](CCCN)NC(=O)[C@H](C(C)C)NC(=O)[C@H](Cc2ccc(-c3ccccc3)cc2)NC(=O)[C@H](CC(C)C)NC(=O)[C@H](Cc2c[nH]c3ccccc23)NC(=O)[C@H](CC(=O)O)NC(=O)[C@H](Cc2ccc(OCC(=O)O)cc2)NC(=O)[C@H](Cc2ccc(OCC(=O)O)cc2)NC(=O)CSC[C@@H](C(=O)N[C@H](CCN)C(=O)NCCOCCOCC(=O)NCCCCCCCCCCC(=O)O)NC(=O)[C@H](CO)NC(=O)[C@H](C(C)C)CC1=O [Compound 3071] ({CH2CO}-Y(Carboxymethyl)Y(Carboxymethyl)DWL[Bip]V[Orn][dL][Dab][X2]SC[dDab][AEEA][Aun]-OH; thioether N-13)
2,3.6,Cc1cccc(C[C@@H]2NC(=O)[C@H](CC(=O)O)NC(=O)[C@H](Cc3ccc(OCC(=O)O)cc3)NC(=O)[C@H](CCCCNC(=N)N)NC(=O)CSC[C@@H](C(=O)NCCOCCOCC(=O)N[C@@H](CCN)C(=O)NCCCCCCCCCCC(=O)O)NC(=O)[C@H](CCCN)NC(=O)[C@H](C(C)C)NC(=O)[C@H](CC3CCCCC3)NC(=O)[C@H](CCN)NC(=O)[C@@H](CC(C)C)NC(=O)[C@H](CCCN)NC(=O)[C@H](C(C)C)NC(=O)[C@H](Cc3ccc(-c4ccccc4)cc3)NC(=O)[C@H](C(C)C)NC2=O)c1 [Compound 3248] ({CH2CO}-[hArg]Y(Carboxymethyl)D[Phe(3-Me)]V[Bip]V[Orn][dL][Dab][Cha]V[Orn]C[AEEA][Dab][Aun]-OH; thioether N-14)
3,2.6,Cc1cccc(C[C@@H]2NC(=O)[C@H](CC(=O)O)NC(=O)[C@H](Cc3ccc(OCC(=O)O)cc3)NC(=O)[C@H](CN)NC(=O)CSC[C@@H](C(=O)N[C@@H](C)C(=O)N[C@@H](CCC(=O)O)C(=O)NCCOCCOCC(=O)NCCCCCCCCCCC(=O)O)NC(=O)[C@H]([C@@H](C)O)NC(=O)[C@H](C(C)C)NC(=O)[C@H](CC3CCCCC3)NC(=O)[C@H](CCN)NC(=O)[C@@H](CC(C)C)NC(=O)[C@H](CCCN)NC(=O)[C@H](CCCNC(N)=O)NC(=O)[C@H](Cc3ccc(-c4ccccc4)cc3)NC(=O)[C@H](C(C)C)NC2=O)c1 [Compound 1004] ({CH2CO}-[Dap]Y(Carboxymethyl)D[Phe(3-Me)]V[Bip][Cit][Orn][dL][Dab][Cha]VTCAE[AEEA][Aun]-OH; thioether N-14)
4,4.3,Cc1cccc(C[C@@H]2NC(=O)[C@H](CC(=O)O)NC(=O)[C@H](Cc3ccc(OCC(=O)O)cc3)NC(=O)[C@H](CN)NC(=O)CSC[C@@H](C(=O)NCCOCCOCC(=O)N[C@@H](CCC(=O)NCCCCCCCCCCC(=O)O)C(=O)O)NC(=O)[C@H]([C@@H](C)O)NC(=O)[C@H](C(C)C)NC(=O)[C@H](CC3CCCCC3)NC(=O)[C@H](CCN)NC(=O)[C@@H](CC(C)C)NC(=O)[C@H](CCCN)NC(=O)[C@H](CCCNC(N)=O)NC(=O)[C@H](Cc3ccc(-c4ccccc4)cc3)NC(=O)[C@H](C(C)C)NC2=O)c1 [Compound 1030] ({CH2CO}-[Dap]Y(Carboxymethyl)D[Phe(3-Me)]V[Bip][Cit][Orn][dL][Dab][Cha]VTC[AEEA][γGlu][Aun]-OH; thioether N-14)
